Measured values as given in patent US4818770A, “Prevention of a plant disease by specific inhibition of fungal polyamine biosynthesis” (priority 1986, dated 1989).

System: U. phaseoli
Test: Bean rust severity after DFMO and polyamines alone or combined
Assay type: in vivo, Uromyces phaseoli
Conditions: for Lesions per cm^2 / Lesions per leaf / Lesions per leaf, percent of control: postinoculation

SMILES: NCCCCN [Put, putrescine]
- reduction of number of lesions (1 mM Put alone): about one-third
- Lesions per cm^2 (polyamine alone 0.01 mM): 57 ± 2 per cm^2
- Lesions per leaf (polyamine alone 0.01 mM): 4013 ± 264 per leaf
- Lesions per leaf, percent of control (polyamine alone 0.01 mM): 98% of control
- Lesions per cm^2 (polyamine alone 0.1 mM): 54 ± 5 per cm^2
- Lesions per leaf (polyamine alone 0.1 mM): 3189 ± 478 per leaf
- Lesions per leaf, percent of control (polyamine alone 0.1 mM): 78% of control
- Lesions per cm^2 (polyamine alone 1.0 mM): 44 ± 9 per cm^2
- Lesions per leaf (polyamine alone 1.0 mM): 2698 ± 260 per leaf
- Lesions per leaf, percent of control (polyamine alone 1.0 mM): 66% of control

SMILES: NCCCCNCCCN [Spd, spermidine]
- Lesions per cm^2 (polyamine alone 0.01 mM): 56 ± 5 per cm^2
- Lesions per leaf (polyamine alone 0.01 mM): 3209 ± 360 per leaf
- Lesions per leaf, percent of control (polyamine alone 0.01 mM): 78% of control
- Lesions per cm^2 (polyamine alone 0.1 mM): 58 ± 6 per cm^2
- Lesions per leaf (polyamine alone 0.1 mM): 3416 ± 457 per leaf
- Lesions per leaf, percent of control (polyamine alone 0.1 mM): 83% of control
- Lesions per cm^2 (polyamine alone 1.0 mM): 50 ± 10 per cm^2
- Lesions per leaf (polyamine alone 1.0 mM): 3926 ± 358 per leaf
- Lesions per leaf, percent of control (polyamine alone 1.0 mM): 96% of control
